Test results taken from paper PMC9917632, “Structural and Biochemical Analyses of the Butanol Dehydrogenase from Fusobacterium nucleatum” (International Journal of Molecular Sciences, 2023).

Experiments:
[1] = molecular target: T1, FnYqdH (Fusobacterium nucleatum YqdH, butanol dehydrogenase) (Fusobacterium nucleatum, UniProt Q8R612); experiment: NADH consumption at […] nm, double reciprocal plot; type: biochemical; settings: 0.1-0.5 mM NADH; co-substrate butanal; Tris-HCl pH 6.0, CoSO4, 35 °C (standard assay)
T1 construct: gene FN1415; recombinant, yqdH cloned NcoI/XhoI in pPRO-EX-HTA, expressed in Escherichia coli; dimer; 384 residues modelled (CD to residue 385)
T1 sequence (Q8R612 1-385): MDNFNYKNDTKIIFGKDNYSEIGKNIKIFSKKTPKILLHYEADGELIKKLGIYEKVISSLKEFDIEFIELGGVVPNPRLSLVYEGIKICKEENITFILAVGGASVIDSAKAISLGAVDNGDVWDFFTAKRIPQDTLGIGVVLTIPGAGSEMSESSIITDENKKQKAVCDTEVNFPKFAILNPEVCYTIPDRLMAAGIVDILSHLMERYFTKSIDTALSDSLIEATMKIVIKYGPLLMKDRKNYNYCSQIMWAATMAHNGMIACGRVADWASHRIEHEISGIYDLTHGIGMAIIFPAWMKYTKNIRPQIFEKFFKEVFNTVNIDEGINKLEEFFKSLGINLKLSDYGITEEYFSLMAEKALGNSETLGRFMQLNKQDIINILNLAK

[2] = molecular target: T1, FnYqdH (Fusobacterium nucleatum YqdH, butanol dehydrogenase); experiment: X-ray crystal structure, […] Å, soaked crystal; settings: soaked 1 min with 10 mM NADH and 2 mM Co2+; nucleotide-binding domain; open conformation
[3] = molecular target: T2, TmBDH (Thermotoga maritima, UniProt Q9WZS7); experiment: NADH consumption, spectrophotometric; type: biochemical; settings: metal-free enzyme reconstituted with 2 mM Zn2+, Co2+, Ni2+ or Fe3+; co-substrate butanal
T2 construct: gene TM_0820; purified protein, EDTA-treated (metal-free) then metal-reconstituted
T2 sequence (Q9WZS7 1-395): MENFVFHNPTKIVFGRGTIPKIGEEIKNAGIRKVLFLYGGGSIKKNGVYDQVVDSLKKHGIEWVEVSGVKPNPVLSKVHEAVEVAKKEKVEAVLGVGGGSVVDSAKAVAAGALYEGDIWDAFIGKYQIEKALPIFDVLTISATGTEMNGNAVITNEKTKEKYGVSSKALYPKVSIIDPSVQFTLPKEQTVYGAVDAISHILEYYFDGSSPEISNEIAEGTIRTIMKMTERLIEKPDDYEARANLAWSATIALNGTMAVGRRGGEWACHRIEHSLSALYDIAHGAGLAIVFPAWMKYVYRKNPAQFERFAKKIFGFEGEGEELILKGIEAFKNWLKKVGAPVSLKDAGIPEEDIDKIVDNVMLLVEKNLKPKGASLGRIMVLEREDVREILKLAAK

[4] = molecular target: T1, FnYqdH (Fusobacterium nucleatum YqdH, butanol dehydrogenase); experiment: NADPH consumption at […] nm, double reciprocal plot; type: biochemical; settings: 0.1-1 mM NADPH; co-substrate butanal; Tris-HCl pH 6.0, CoSO4, 35 °C (standard assay)
[5] = molecular target: Fusobacterium nucleatum YqdH (butanol dehydrogenase) (Fusobacterium nucleatum); experiment: SEC; purified FnYqdH (500 uL of 1 mg/mL) on Superdex 200 10/300 GL; 20 mM Tris-HCl pH 8.0, 150 mM NaCl, 2 mM BME; 0.5 mL/min

Which results are given for NC(=O)C1=CN([C@@H]2O[C@H](COP(=O)(O)OP(=O)(O)OC[C@H]3O[C@@H](n4cnc5c(N)ncnc54)[C@H](O)[C@@H]3O)[C@@H](O)[C@H]2O)C=CC1 [NADH]?
apparent Km [1]: the apparent Km and Vmax values were measured with a purified protein; X-ray crystal structure, 2.72 Å, soaked crystal [2]: an electron-density map corresponding to NADH and metal ions was clearly observed; NADH consumption, spectrophotometric [3]: monitoring NADH consumption for five different metal ions

Which “apparent Km” value [4] does the source give for NC(=O)C1=CN([C@@H]2O[C@H](COP(=O)(O)OP(=O)(O)OC[C@H]3O[C@@H](n4cnc5c(N)ncnc54)[C@H](OP(=O)(O)O)[C@@H]3O)[C@@H](O)[C@H]2O)C=CC1 [NADPH] here?
The value was “NADH is preferred over NADPH in terms of FnYqdH activity (Figure S2)”.

For “Fusobacterium nucleatum YqdH (butanol dehydrogenase) (enzyme)”, which stoichiometry N [5] is on record?
Its stoichiometry N is 2.
